From ChEMBL document CHEMBL1138218, “Structure-activity relationship studies of ethyl 2-amino-6-bromo-4-(1-cyano-2-ethoxy-2-oxoethyl)-4H-chromene-3-carboxylate (HA 14-1), an antagonist for antiapoptotic Bcl-2 proteins to overcome drug resistance in cancer” (J Med Chem, 2006)

What was measured:
Bcl-2-like protein 1 [1] = molecular target: T1, Bcl-2-like protein 1 (Homo sapiens, UniProt Q07817); test: Growth inhibition of Jurkat cell overexpressing BclXL; format: functional, cell-based
NCI-H460 = test: Growth inhibition of NCI-H460 cell; format: functional; conditions: Homo sapiens
[2] = Ratio of GI50 for Jurkat cells overexpressing Bcl2 or BclXL to normal Jurkat cells; format: functional, Homo sapiens
Bcl-2-like protein 1 [3] = molecular target: T1, Bcl-2-like protein 1; test: Binding affinity to BclXL by FP assay
[4] = molecular target: T2, Apoptosis regulator Bcl-2 (Homo sapiens, UniProt P10415); test: Binding affinity to Bcl2 by FP assay
T2 sequence (P10415 whole entry): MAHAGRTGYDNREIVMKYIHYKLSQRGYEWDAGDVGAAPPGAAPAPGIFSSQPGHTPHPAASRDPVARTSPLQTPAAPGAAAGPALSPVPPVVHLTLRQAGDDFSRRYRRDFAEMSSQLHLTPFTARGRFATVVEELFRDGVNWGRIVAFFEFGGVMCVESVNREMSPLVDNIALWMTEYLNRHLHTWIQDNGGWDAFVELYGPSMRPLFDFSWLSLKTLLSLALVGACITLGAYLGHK

[5] = molecular target: T2, Apoptosis regulator Bcl-2; test: Growth inhibition of Jurkat cell overexpressing Bcl2; format: functional, cell-based
Jurkat = test: Growth inhibition of Jurkat cell; format: functional; conditions: Homo sapiens
Bcl-2-like protein 2 = molecular target: T3, Bcl-2-like protein 2 (Homo sapiens, UniProt Q92843); test: Binding affinity to Bclw by FP assay
T3 sequence (Q92843 whole entry): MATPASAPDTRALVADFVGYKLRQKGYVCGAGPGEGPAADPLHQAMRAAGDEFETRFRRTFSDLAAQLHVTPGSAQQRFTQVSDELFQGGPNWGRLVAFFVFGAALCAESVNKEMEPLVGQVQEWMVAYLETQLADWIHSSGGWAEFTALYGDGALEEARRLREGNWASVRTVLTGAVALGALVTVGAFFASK

T1 sequence (Q07817 whole entry): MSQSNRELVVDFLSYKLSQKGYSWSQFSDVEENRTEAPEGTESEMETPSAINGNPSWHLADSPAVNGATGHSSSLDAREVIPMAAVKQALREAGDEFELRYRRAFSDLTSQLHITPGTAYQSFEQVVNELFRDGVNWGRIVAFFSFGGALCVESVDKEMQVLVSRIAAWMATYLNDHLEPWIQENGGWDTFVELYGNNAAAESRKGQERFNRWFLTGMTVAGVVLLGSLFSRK

Structure (SMILES)	GI50 (Bcl-2-like protein 1 [1]) [µM]	GI50 (NCI-H460) [µM]	Ki (Bcl-2-like protein 1 [3]) [µM]	Ki [4] [µM]	GI50 [5] [µM]	GI50 (Jurkat) [µM]	Ki (Bcl-2-like protein 2) [µM]	RatioGI50 [2]
CCOC(=O)C1=C(N)Oc2ccccc2C1C(C#N)C(=O)OCC (configuration not stated)	99	157	570	531	94	66	697	<1.5
CCOC(=O)C1=C(N)Oc2ccc(C)cc2C1C(C#N)C(=O)OCC (configuration not stated)	41	102	191	309	37	29	199	<1.41
CCOC(=O)C1=C(N)Oc2ccc(CC)cc2C1C(C#N)C(=O)OCC (configuration not stated)	13	79.1	135	210	12	13	121	<1
COc1cccc2c1C(=O)c1c(O)c3c(c(O)c1C2=O)C[C@@](O)(C(=O)CO)C[C@@H]3O[C@H]1C[C@H](N)[C@H](O)[C@H](C)O1 [DOXORUBICIN]	24	–	–	–	26	0.21	–	>100
CC(=O)O[C@H]1C(=O)[C@@]2(C)[C@H]([C@H](OC(=O)c3ccccc3)[C@]3(O)C[C@H](OC(=O)[C@H](O)[C@@H](NC(=O)c4ccccc4)c4ccccc4)C(C)=C1C3(C)C)[C@]1(OC(C)=O)CO[C@@H]1C[C@@H]2O [PACLITAXEL]	> 10	–	–	–	> 10	< 0.01	–	>100
CCOC(=O)C1=C(N)Oc2ccc(C3CCCC3)cc2C1C(C#N)C(=O)OCC (configuration not stated)	3.9	11	36.5	128	3.8	3.5	30.8	<1.1

More lines, in order of falling GI50 (Bcl-2-like protein 1 [1]), values ahead:

GI50 (Bcl-2-like protein 1 [1]) [µM]	GI50 (NCI-H460) [µM]	Ki (Bcl-2-like protein 1 [3]) [µM]	Ki [4] [µM]	GI50 [5] [µM]	GI50 (Jurkat) [µM]	Ki (Bcl-2-like protein 2) [µM]	Structure (SMILES)	RatioGI50 [2]
183	–	–	–	147	13	–	Nc1nc2[nH]cnc2c(=S)[nH]1 [THIOGUANINE]	>11
6.3	24.9	70.7	128	5.7	5.2	56.7	CCCc1ccc2c(c1)C(C(C#N)C(=O)OCC)C(C(=O)OCC)=C(N)O2 (configuration not stated)	<1.21
4.1	15.9	52.9	112	4.2	3.9	41.2	CCOC(=O)C1=C(N)Oc2ccc(-c3ccccc3)cc2C1C(C#N)C(=O)OCC (configuration not stated)	<1.07
0.99	0.16	21.7	–	0.99	0.8	20.3	CCOC(=O)C1=C(N)Oc2ccc(-c3ccc(C(C)(C)C)cc3)cc2C1C(C#N)C(=O)OCC (configuration not stated)	<1.24
